According to US8012980B2, “Isoquinolinone derivatives” (AstraZeneca AB, priority 2008, dated 2011):

The molecules below were run against T1, human active recombinant p38 (p38α) (Homo sapiens, UniProt Q16539) (assay: p38 Alpha Enzyme Assay (AlphaScreen, biotinylated-ATF2 substrate)). Details: means of replicate determinations; pre-incubated for 4 hours at 37° C.; SD of assay between 0.2 and 0.3 log units; read-out: p38α inhibition Mean pIC50 (converted).
T1 construct: 6His
Type: biochemical
Procedure: The ability of the compounds of formula (I) to inhibit p38 kinase may be determined using the following biological assay:
Enzyme assays were performed in polypropylene 96 well plates. The following solutions were added to each well; 10 μL of compound dilutions in assay buffer (20 mM HEPES pH 7.4, containing 20 mM magnesium acetate, 0.005% (w/v) Tween-20, 10 mM DTT) containing 1% (v/v) DMSO or assay buffer containing 1% (v/v) DMSO alone, 70 μL of assay buffer containing 36 nM substrate (biotinylated-ATF2) and 10 μL of an appropriate dilution of human active recombinant p38-6H is tagged. Depending on batch of p38, an appropriate dilution was typically a 5 nM solution to give a final enzyme concentration of 0.5 nM. At this stage, background control wells also received 50 μL of AlphaScreen quench buffer (10 mM HEPES pH 7.4 containing 100 mM EDTA, 0.2% (w/v) bovine serum albumin). The plate was covered, pre-incubated for 4 hours at 37° C. and the enzyme reaction initiated by addition of 10 μL 1 mM ATP. After incubation for a further 45 minutes at 37° C., the reaction was stopped by addition of 50 μL quench reagent and 50 μL of the quenched reaction mixture transferred to an opaque, white 96-well plate. Detection reagent, 25 μL of 10 mM HEPES pH 7.4 containing 100 mM EDTA, 0.2% (w/v) bovine serum albumin, 0.3 nM anti phosphoATF2 antibody and 25 μg/mL of AlphaScreen protein A acceptor and donor beads' (PerkinElmer Inc.), was added to all wells in a darkened room, the plate sealed and left in the dark for at least 5 hours before AlphaScreen readings were taken using a Perkin Elmer EnVision reader. Total, uninhibited activity was determined from assays performed in each assay plate. The mean control in the absence of p38 activity was subtracted from each well. Data were expressed as percent inhibition of total activity using equation 1. Percent Inhibition=100*(1−Test/Control) Eq.1 Where . . . Test=p38 kinase activity in the presence of compound Control=p38 kinase activity in the absence of compound.
pIC50 is defined as the logarithm of the reciprocal of the concentration of compound required for 50% reduction in total p38 kinase activity.
The standard deviation of the p38 enzyme inhibition assay is between 0.2 and 0.3 log units.

T1 sequence (Q16539 whole entry): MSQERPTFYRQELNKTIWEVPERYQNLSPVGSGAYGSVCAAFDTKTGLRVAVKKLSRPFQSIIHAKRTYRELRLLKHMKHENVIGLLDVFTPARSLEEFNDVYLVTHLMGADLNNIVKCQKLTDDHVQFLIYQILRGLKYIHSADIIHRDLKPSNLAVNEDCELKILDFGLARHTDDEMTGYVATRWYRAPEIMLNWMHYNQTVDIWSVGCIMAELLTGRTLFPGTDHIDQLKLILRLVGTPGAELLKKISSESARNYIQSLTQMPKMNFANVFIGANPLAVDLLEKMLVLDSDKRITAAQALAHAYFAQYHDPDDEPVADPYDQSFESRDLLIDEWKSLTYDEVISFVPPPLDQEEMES

IC50 [nM] | SMILES
0.794 | Cc1c(F)cc(C(=O)NC2CC2)cc1-c1ccc2c(=O)n(CC(C)(C)CO)cc(C(C)N3CCC[C@@H](N)C3)c2c1 (stereo partly drawn) [Example 42, 3-[4-{1-[(3R)-3-Aminopiperidin-1-yl]ethyl}-2-(3-hydroxy-2,2-dimethylpropyl)-1-oxo-1,2-dihydroisoquinolin-6-yl]-N-cyclopropyl-5-fluoro-4-methylbenzamide]
0.501 | COCCCn1cc(CN2CCN[C@@H](CO)C2)c2cc(-c3cc(C(=O)NC4CC4)cc(F)c3C)ccc2c1=O [Example 13]
0.158 | Cc1c(F)cc(C(=O)NC2CC2)cc1-c1ccc2c(=O)n(CC(C)(C)CO)cc(CN3CCNC[C@@H]3CO)c2c1 [Example 22, N-Cyclopropyl-3-fluoro-5-[2-(3-hydroxy-2,2-dimethylpropyl)-4-{[(2R)-2-(hydroxymethyl)piperazin-1-yl]methyl}-1-oxo-1,2-dihydroisoquinolin-6-yl]-4-methylbenzamide]
1.26 | Cc1c(F)cc(C(=O)NC2CC2)cc1-c1ccc2c(=O)n(CC(C)(C)CO)cc(C(C)N3CCN[C@@H](CO)C3)c2c1 (stereo partly drawn) [Example 44, N-Cyclopropyl-3-fluoro-5-[2-(3-hydroxy-2,2-dimethylpropyl)-4-{1-[(3R)-3-(hydroxymethyl)piperazin-1-yl]ethyl}-1-oxo-1,2-dihydroisoquinolin-6-yl]-4-methylbenzamide]
0.316 | Cc1c(F)cc(C(=O)NC2CC2)cc1-c1ccc2c(=O)n(CC(C)(C)CO)cc(SC3CCNCC3)c2c1 [Example 58, N-Cyclopropyl-3-fluoro-5-[2-(3-hydroxy-2,2-dimethylpropyl)-1-oxo-4-(piperidin-4-ylsulfanyl)-1,2-dihydroisoquinolin-6-yl]-4-methylbenzamide]
0.501 | Cc1c(F)cc(C(=O)NC2CC2)cc1-c1ccc2c(=O)n(CCO)cc(CN3CCCN(C)CC3)c2c1 [Example 7, N-Cyclopropyl-3-fluoro-5-(2-(2-hydroxyethyl)-4-((4-methyl-1,4-diazepan-1-yl)methyl)-1-oxo-1,2-dihydroisoquinolin-6-yl)-4-methylbenzamide]
0.158 | Cc1c(F)cc(C(=O)NC2CC2)cc1-c1ccc2c(=O)n(CC3(CO)CC3)cc(S(=O)(=O)N3CCCNCC3)c2c1 [Example 57]
0.2 | CNC1CCN(S(=O)(=O)c2cn(CC3CC3)c(=O)c3ccc(-c4cc(C(=O)NC5CC5)cc(F)c4C)cc23)CC1 [Example 52, N-cyclopropyl-3-[2-(cyclopropylmethyl)-4-{[4-(methylamino)piperidin-1-yl]sulfonyl}-1-oxo-1,2-dihydroisoquinolin-6-yl]-5-fluoro-4-methylbenzamide]
0.316 | Cc1c(F)cc(C(=O)NC2CC2)cc1-c1ccc2c(=O)n(CC3(CO)CCC3)cc(CN3CCNCC3)c2c1 [Example 27, N-Cyclopropyl-3-fluoro-5-[2-{[1-(hydroxymethyl)cyclobutyl]methyl}-1-oxo-4-(piperazin-1-ylmethyl)-1,2-dihydroisoquinolin-6-yl]-4-methylbenzamide]
0.398 | Cc1c(F)cc(C(=O)NC2CC2)cc1-c1ccc2c(=O)n(CC3(CO)CC3)cc(SC[C@@H]3CCCNC3)c2c1 [Example 63]
0.794 | Cc1c(F)cc(C(=O)NC2CC2)cc1-c1ccc2c(=O)n(CC(C)(C)CO)cc(CN3CCNC[C@@H]3C)c2c1 [Example 28, N-Cyclopropyl-3-fluoro-5-[2-(3-hydroxy-2,2-dimethylpropyl)-4-{[(2S)-2-methylpiperazin-1-yl]methyl}-1-oxo-1,2-dihydroisoquinolin-6-yl]-4-methylbenzamide]
0.794 | Cc1c(F)cc(C(=O)NC2CC2)cc1-c1ccc2c(=O)n(CC(C)(C)CO)cc(CN3CCN(CCCO)CC3)c2c1 [Example 32, N-Cyclopropyl-3-fluoro-5-[2-(3-hydroxy-2,2-dimethylpropyl)-4-{[4-(3-hydroxypropyl)piperazin-1-yl]methyl}-1-oxo-1,2-dihydroisoquinolin-6-yl]-4-methylbenzamide]
0.501 | Cc1c(F)cc(C(=O)NC2CC2)cc1-c1ccc2c(=O)n(CC(C)(C)CO)cc([S+]([O-])C3CCNCC3)c2c1 (stereo not drawn) [Example 59, N-Cyclopropyl-3-fluoro-5-[2-(3-hydroxy-2,2-dimethylpropyl)-1-oxo-4-(piperidin-4-ylsulfinyl)-1,2-dihydroisoquinolin-6-yl]-4-methylbenzamide]
0.501 | Cc1c(F)cc(C(=O)NC2CC2)cc1-c1ccc2c(=O)n(CCC(C)(C)O)cc(CN3CCN[C@@H](CO)C3)c2c1 [Example 14, N-Cyclopropyl-3-fluoro-5-(2-(3-hydroxy-3-methylbutyl)-4-(((3R)-3-(hydroxymethyl)piperazin-1-yl)methyl)-1-oxo-1,2-dihydroisoquinolin-6-yl)-4-methylbenzamide]
3.16 | Cc1c(F)cc(C(=O)NC2CC2)cc1-c1ccc2c(=O)n(CC(C)(CO)CO)cc(CN3CCN[C@@H](C)C3)c2c1 [Example 36, N-Cyclopropyl-3-fluoro-5-(2-[3-hydroxy-2-(hydroxymethyl)-2-methylpropyl]-4-{[(3S)-3-methylpiperazin-1-yl]methyl}-1-oxo-1,2-dihydroisoquinolin-6-yl)-4-methylbenzamide]
0.2 | Cc1c(F)cc(C(=O)NC2CC2)cc1-c1ccc2c(=O)n(CC3CC3)cc(S(=O)(=O)C3CCNCC3)c2c1 [Example 62, N-Cyclopropyl-3-[2-(cyclopropylmethyl)-1-oxo-4-(piperidin-4-ylsulfonyl)-1,2-dihydroisoquinolin-6-yl]-5-fluoro-4-methylbenzamide]
0.501 | Cc1c(F)cc(C(=O)NC2CC2)cc1-c1ccc2c(=O)n(CCCO)cc(CN3CCN[C@@H](C)C3)c2c1 [Example 4, N-Cyclopropyl-3-fluoro-5-(2-(3-hydroxypropyl)-4-(((3S)-3-methylpiperazin-1-yl)methyl)-1-oxo-1,2-dihydroisoquinolin-6-yl)-4-methylbenzamide]
0.2 | Cc1c(F)cc(C(=O)NC2CC2)cc1-c1ccc2c(=O)n(CC3CC3)cc(S(=O)(=O)N3CCC(N)CC3)c2c1 [Example 50, 3-{4-[(4-Aminopiperidin-1-yl)sulfonyl]-2-(cyclopropylmethyl)-1-oxo-1,2-dihydroisoquinolin-6-yl}-N-cyclopropyl-5-fluoro-4-methylbenzamide]
0.1 | Cc1c(F)cc(C(=O)NC2CC2)cc1-c1ccc2c(=O)n(CC3CC3)cc(SC3CCNCC3)c2c1 [Example 61, N-Cyclopropyl-3-[2-(cyclopropylmethyl)-1-oxo-4-(piperidin-4-ylsulfanyl)-1,2-dihydroisoquinolin-6-yl]-5-fluoro-4-methylbenzamide]
0.398 | Cc1c(F)cc(C(=O)NC2CC2)cc1-c1ccc2c(=O)n(CC3(CO)CC3)cc(CN3CCNCC3)c2c1 [Example 19, N-Cyclopropyl-3-fluoro-5-[2-{[1-(hydroxymethyl)cyclopropyl]methyl}-1-oxo-4-(piperazin-1-ylmethyl)-1,2-dihydroisoquinolin-6-yl]-4-methylbenzamide]
0.398 | Cc1c(F)cc(C(=O)NC2CC2)cc1-c1ccc2c(=O)n(CC3(CO)CC3)cc(CN3CCN[C@@H](CO)C3)c2c1 [Example 12, N-Cyclopropyl-3-fluoro-5-(2-((1-(hydroxymethyl)cyclopropyl)methyl)-4-(((3R)-3-(hydroxymethyl)piperazin-1-yl)methyl)-1-oxo-1,2-dihydroisoquinolin-6-yl)-4-methylbenzamide]
0.794 | Cc1c(F)cc(C(=O)NC2CC2)cc1-c1ccc2c(=O)n(C[C@@H](C)CO)cc(CN3CCNCC3)c2c1 [Example 20, N-Cyclopropyl-3-fluoro-5-{2-[(2R)-3-hydroxy-2-methylpropyl]-1-oxo-4-(piperazin-1-ylmethyl)-1,2-dihydroisoquinolin-6-yl}-4-methylbenzamide]
0.398 | Cc1c(F)cc(C(=O)NC2CC2)cc1-c1ccc2c(=O)n(CC(C)(C)CO)cc(S(=O)(=O)C3CCNCC3)c2c1 [Example 60, N-Cyclopropyl-3-fluoro-5-[2-(3-hydroxy-2,2-dimethylpropyl)-1-oxo-4-(piperidin-4-ylsulfonyl)-1,2-dihydroisoquinolin-6-yl]-4-methylbenzamide]
0.158 | Cc1c(F)cc(C(=O)NC2CC2)cc1-c1ccc2c(=O)n(CC(C)(C)CO)cc(CN3CCN[C@@H](CO)C3)c2c1 [Example 11, N-Cyclopropyl-3-fluoro-5-(2-(3-hydroxy-2,2-dimethylpropyl)-4-(((3R)-3-(hydroxymethyl)piperazin-1-yl)methyl)-1-oxo-1,2-dihydroisoquinolin-6-yl)-4-methylbenzamide]
